Like-named read-outs stand apart in the source and are kept apart here. Marks after values point to notes of the source that are not given here. No end group written: not given here.
What was measured:
P. acnes DSM1897 = assay type: cell-based, Propionibacterium acnes
Procedure: Broth Dilution Antibacterial Susceptibility Testing
The sensitivity of relevant bacterial strains to peptides was determined using Clinical Laboratory Standard Institute (CLSI; formerly NCCLS) Approved Standards. Bacterial susceptibility was tested using “Methods for Dilution Antimicrobial Susceptibility Tests for Bacteria That Grow […]; Approved Standard—Seventh Edition M7-A7”

M. furfur DSM6170 = assay type: cell-based, Malassezia furfur
Procedure: Broth Dilution Antifungal Susceptibility Testing
The sensitivity of relevant fungal strains to peptides was determined using Clinical Laboratory Standard Institute (CLSI; formerly NCCLS) Approved Standards. Yeast susceptibility was tested using “Reference Method for Broth Dilution Antifungal Susceptibility Testing of Yeasts; Approved Standard—Second Edition M27-A”.

[1] = Table 3, starred values (*value in mg/ml)
[2] = Table 1, starred values (*value in mM)

GKKEKPEKKVKK [NP331]
Antimicrobial Activity (MIC) P. acnes DSM1897 (P. acnes DSM1897; DSM1897): >2 mM

RRVRRVRR [NP309]
Antimicrobial Activity (MIC) P. acnes DSM1897 (P. acnes DSM1897; DSM1897): 1 mM

RWRWR [NP320, RWRWR]
Antimicrobial Activity (MIC) P. acnes DSM1897 (P. acnes DSM1897; DSM1897): 1 mM

KKKKKKKKK [NP345]
Antimicrobial Activity (MIC) P. acnes DSM1897 (P. acnes DSM1897; DSM1897): 2.5* mM

(H)n, n = >32, HCl salt (>5 kDa) [NP132]
MIC against Malassezia furfur DSM6170 (M. furfur DSM6170; [1]): 0.0625* mg/ml

RRVVRR [NP305, RRVVRR]
Antimicrobial Activity (MIC) P. acnes DSM1897 (P. acnes DSM1897; DSM1897): >2 mM

KKKKK [NP343, KKKKK]
Antimicrobial Activity (MIC) P. acnes DSM1897 (P. acnes DSM1897; DSM1897): >10* mM

RRWRR [NP322, RRWRR]
Antimicrobial Activity (MIC) P. acnes DSM1897 (P. acnes DSM1897; DSM1897): 2 mM

RRWRWR [NP323, RRWRWR]
Antimicrobial Activity (MIC) P. acnes DSM1897 (P. acnes DSM1897; DSM1897): 0.5 mM

N=C(N)NCCC[C@@H](N)C(=O)N[C@H](CCCNC(=N)N)C(=O)N[C@H](CCCNC(=N)N)C(=O)N[C@H](CCCNC(=N)N)C(=O)N[C@H](CCCNC(=N)N)C(=O)N[C@H](CCCNC(=N)N)C(=O)N[C@H](CCCNC(=N)N)C(=O)N[C@H](CCCNC(=N)N)C(=O)N[C@H](CCCNC(=N)N)C(=O)N[C@H](CCCNC(=N)N)C(=O)N[C@H](CCCNC(=N)N)C(=O)N[C@H](CCCNC(=N)N)C(=O)N[C@H](CCCNC(=N)N)C(=O)O [NP339, dRdRdRdRdRdRdRdRdRdRdRdRdR]
Antimicrobial Activity (MIC) P. acnes DSM1897 (P. acnes DSM1897; DSM1897): 0.02 mM
Antimicrobial Activity (MIC) M. furfur DSM6170 (M. furfur DSM6170; DSM6170): 0.008 mM

(H)n, n = 32-161, HCl salt (5-25 kDa) [NP131]
MIC against Malassezia furfur DSM6170 (M. furfur DSM6170; [1]): 0.0625* mg/ml

RRWRWRR [NP326, RRWRWRR]
Antimicrobial Activity (MIC) P. acnes DSM1897 (P. acnes DSM1897; DSM1897): 0.25 mM

KKKDKVKK [NP334]
Antimicrobial Activity (MIC) P. acnes DSM1897 (P. acnes DSM1897; DSM1897): >2 mM

RRVVR [NP302, RRVVR]
Antimicrobial Activity (MIC) P. acnes DSM1897 (P. acnes DSM1897; DSM1897): >2 mM

RRRWWRRR [NP327]
Antimicrobial Activity (MIC) P. acnes DSM1897 (P. acnes DSM1897; DSM1897): 0.125 mM

KKKKKEGKKQEKMLD [NP333]
Antimicrobial Activity (MIC) P. acnes DSM1897 (P. acnes DSM1897; DSM1897): >2 mM

RRWWR [NP321, RRWWR]
Antimicrobial Activity (MIC) P. acnes DSM1897 (P. acnes DSM1897; DSM1897): 1 mM

CC(=O)N[C@H](CCCNC(=N)N)C(=O)N[C@H](CCCNC(=N)N)C(=O)N[C@H](CCCNC(=N)N)C(=O)N[C@H](CCCNC(=N)N)C(=O)N[C@H](CCCNC(=N)N)C(=O)N[C@H](CCCNC(=N)N)C(=O)N[C@H](CCCNC(=N)N)C(=O)N[C@H](CCCNC(=N)N)C(=O)N[C@H](CCCNC(=N)N)C(=O)N[C@H](CCCNC(=N)N)C(=O)N[C@H](CCCNC(=N)N)C(=O)N[C@H](CCCNC(=N)N)C(=O)N[C@H](CCCNC(=N)N)C(N)=O [NP340, Ac-dRdRdRdRdRdRdRdRdRdRdRdRdR-NH2]
Antimicrobial Activity (MIC) P. acnes DSM1897 (P. acnes DSM1897; DSM1897): 0.02 mM
Antimicrobial Activity (MIC) M. furfur DSM6170 (M. furfur DSM6170; DSM6170): 0.008 mM

RRWWRR [NP324, RRWWRR]
Antimicrobial Activity (MIC) P. acnes DSM1897 (P. acnes DSM1897; DSM1897): 0.25 mM

RRRVVRRR [NP308]
Antimicrobial Activity (MIC) P. acnes DSM1897 (P. acnes DSM1897; DSM1897): >2 mM

KKKKKKKKKKKKKKK [NP348]
Antimicrobial Activity (MIC) P. acnes DSM1897 (P. acnes DSM1897; [2]): 0.0625* mM
Antimicrobial Activity (MIC) M. furfur DSM6170 (M. furfur DSM6170; [2]): 0.25* mM

KKKKKKK [NP344, KKKKKKK]
Antimicrobial Activity (MIC) P. acnes DSM1897 (P. acnes DSM1897; DSM1897): >10* mM
Antimicrobial Activity (MIC) M. furfur DSM6170 (M. furfur DSM6170; DSM6170): 1* mM

CC(=O)N[C@@H](CCCNC(=N)N)C(=O)N[C@@H](CCCNC(=N)N)C(=O)N[C@@H](CCCNC(=N)N)C(=O)N[C@@H](CCCNC(=N)N)C(=O)N[C@@H](CCCNC(=N)N)C(=O)N[C@@H](CCCNC(=N)N)C(=O)N[C@@H](CCCNC(=N)N)C(=O)N[C@@H](CCCNC(=N)N)C(=O)N[C@@H](CCCNC(=N)N)C(=O)N[C@@H](CCCNC(=N)N)C(=O)N[C@@H](CCCNC(=N)N)C(=O)N[C@@H](CCCNC(=N)N)C(=O)N[C@@H](CCCNC(=N)N)C(N)=O [NP338]
Antimicrobial Activity (MIC) P. acnes DSM1897 (P. acnes DSM1897; DSM1897): 0.005 mM
Antimicrobial Activity (MIC) M. furfur DSM6170 (M. furfur DSM6170; DSM6170): <0.0156 mM
MIC against Malassezia furfur DSM6170 (M. furfur DSM6170; Table 3, unstarred values): <0.0156 mM

RRRRVVRRRR [NP310]
Antimicrobial Activity (MIC) P. acnes DSM1897 (P. acnes DSM1897; DSM1897): 0.5 mM
Antimicrobial Activity (MIC) M. furfur DSM6170 (M. furfur DSM6170; DSM6170): 0.5 mM
MIC against Malassezia furfur DSM6170 (M. furfur DSM6170; Table 3, unstarred values): 0.5 mM

RRWRRWRR [NP328]
Antimicrobial Activity (MIC) P. acnes DSM1897 (P. acnes DSM1897; DSM1897): 0.5 mM

RRVRR [NP303, RRVRR]
Antimicrobial Activity (MIC) P. acnes DSM1897 (P. acnes DSM1897; DSM1897): >2 mM

RVRVR [NP301, RVRVR]
Antimicrobial Activity (MIC) P. acnes DSM1897 (P. acnes DSM1897; DSM1897): >2 mM

KVRQGTLKKAR [NP335]
Antimicrobial Activity (MIC) P. acnes DSM1897 (P. acnes DSM1897; DSM1897): >2 mM

N=C(N)NCCC[C@H](NC(=O)[C@H](CCCNC(=N)N)NC(=O)[C@H](CCCNC(=N)N)NC(=O)[C@H](CCCNC(=N)N)NC(=O)[C@H](CCCNC(=N)N)NC(=O)[C@H](CCCNC(=N)N)NC(=O)[C@H](CCCNC(=N)N)NC(=O)[C@H](CCCNC(=N)N)NC(=O)[C@H](CCCNC(=N)N)NC(=O)[C@H](CCCNC(=N)N)NC(=O)[C@@H](N)CCCNC(=N)N)C(=O)O [NP317]
Antimicrobial Activity (MIC) P. acnes DSM1897 (P. acnes DSM1897; DSM1897): <0.0156 mM
Antimicrobial Activity (MIC) M. furfur DSM6170 (M. furfur DSM6170; DSM6170): <0.0156 mM
MIC against Malassezia furfur DSM6170 (M. furfur DSM6170; Table 3, unstarred values): <0.0156 mM

RRRVRRR [NP306, RRRVRRR]
Antimicrobial Activity (MIC) P. acnes DSM1897 (P. acnes DSM1897; DSM1897): 2 mM

PKTKAKAKAKKGKGKD [NP336]
Antimicrobial Activity (MIC) P. acnes DSM1897 (P. acnes DSM1897; DSM1897): >2 mM

(R)n, n = 28-86, HCl salt (5-15 kDa) [NP121]
MIC against Malassezia furfur DSM6170 (M. furfur DSM6170; [1]): 0.25* mg/ml

(I-K)n, n = 100-200, HCl salt [NP101]
Antimicrobial Activity (MIC) P. acnes DSM1897 (P. acnes DSM1897; Table 1, unstarred values): 0.1 mg/mL

KLTKPKPQAESKKKKK [NP332]
Antimicrobial Activity (MIC) P. acnes DSM1897 (P. acnes DSM1897; DSM1897): >2 mM

RRVRVRR [NP307, RRVRVRR]
Antimicrobial Activity (MIC) P. acnes DSM1897 (P. acnes DSM1897; DSM1897): >2 mM

RRRWRRR [NP325, RRRWRRR]
Antimicrobial Activity (MIC) P. acnes DSM1897 (P. acnes DSM1897; DSM1897): 2 mM

RRVVRRVVRR [NP311]
Antimicrobial Activity (MIC) P. acnes DSM1897 (P. acnes DSM1897; DSM1897): 2 mM

RRVRVR [NP304, RRVRVR]
Antimicrobial Activity (MIC) P. acnes DSM1897 (P. acnes DSM1897; DSM1897): >2 mM

(I-K)n, n = 7-27, HBr salt [NP106]
Antimicrobial Activity (MIC) P. acnes DSM1897 (P. acnes DSM1897; Table 1, unstarred values): 0.125 mg/mL
Antimicrobial Activity (MIC) M. furfur DSM6170 (M. furfur DSM6170; Table 1, unstarred values): 0.5 mg/mL

N=C(N)NCCC[C@H](NC(=O)[C@H](CCCNC(=N)N)NC(=O)[C@H](CCCNC(=N)N)NC(=O)[C@H](CCCNC(=N)N)NC(=O)[C@H](CCCNC(=N)N)NC(=O)[C@H](CCCNC(=N)N)NC(=O)[C@H](CCCNC(=N)N)NC(=O)[C@H](CCCNC(=N)N)NC(=O)[C@H](CCCNC(=N)N)NC(=O)[C@H](CCCNC(=N)N)NC(=O)[C@H](CCCNC(=N)N)NC(=O)[C@H](CCCNC(=N)N)NC(=O)[C@@H](N)CCCNC(=N)N)C(=O)O [NP337]
Antimicrobial Activity (MIC) P. acnes DSM1897 (P. acnes DSM1897; DSM1897): 0.0025 mM
Antimicrobial Activity (MIC) M. furfur DSM6170 (M. furfur DSM6170; DSM6170): 0.03125 mM

(R)n, n = 86-402, HCl salt (15-70 kDa) [NP122]
MIC against Malassezia furfur DSM6170 (M. furfur DSM6170; [1]): 0.25* mg/ml

Source: US20100137222A1, “Basic Peptides and Their Use as Combined Antibacterial-Antifungine Agents” (NOVABIOTICS LIMITED, priority 2007, published 2010)
